Experimental data taken from ChEMBL document CHEMBL5550172 (Eur J Med Chem, 2024).
pIC50: −log10 of the molar value.

Experiments:
[1] = biological target: T1, Protein deacetylase HDAC6 (Homo sapiens, UniProt Q9UBN7); assay: Inhibition of recombinant human HDAC6 using Ac-Val-Gly-(NAc)Lys-AMC as substrate incubated for 30 mins by fluorescence based assay
T1 sequence (Q9UBN7 whole entry): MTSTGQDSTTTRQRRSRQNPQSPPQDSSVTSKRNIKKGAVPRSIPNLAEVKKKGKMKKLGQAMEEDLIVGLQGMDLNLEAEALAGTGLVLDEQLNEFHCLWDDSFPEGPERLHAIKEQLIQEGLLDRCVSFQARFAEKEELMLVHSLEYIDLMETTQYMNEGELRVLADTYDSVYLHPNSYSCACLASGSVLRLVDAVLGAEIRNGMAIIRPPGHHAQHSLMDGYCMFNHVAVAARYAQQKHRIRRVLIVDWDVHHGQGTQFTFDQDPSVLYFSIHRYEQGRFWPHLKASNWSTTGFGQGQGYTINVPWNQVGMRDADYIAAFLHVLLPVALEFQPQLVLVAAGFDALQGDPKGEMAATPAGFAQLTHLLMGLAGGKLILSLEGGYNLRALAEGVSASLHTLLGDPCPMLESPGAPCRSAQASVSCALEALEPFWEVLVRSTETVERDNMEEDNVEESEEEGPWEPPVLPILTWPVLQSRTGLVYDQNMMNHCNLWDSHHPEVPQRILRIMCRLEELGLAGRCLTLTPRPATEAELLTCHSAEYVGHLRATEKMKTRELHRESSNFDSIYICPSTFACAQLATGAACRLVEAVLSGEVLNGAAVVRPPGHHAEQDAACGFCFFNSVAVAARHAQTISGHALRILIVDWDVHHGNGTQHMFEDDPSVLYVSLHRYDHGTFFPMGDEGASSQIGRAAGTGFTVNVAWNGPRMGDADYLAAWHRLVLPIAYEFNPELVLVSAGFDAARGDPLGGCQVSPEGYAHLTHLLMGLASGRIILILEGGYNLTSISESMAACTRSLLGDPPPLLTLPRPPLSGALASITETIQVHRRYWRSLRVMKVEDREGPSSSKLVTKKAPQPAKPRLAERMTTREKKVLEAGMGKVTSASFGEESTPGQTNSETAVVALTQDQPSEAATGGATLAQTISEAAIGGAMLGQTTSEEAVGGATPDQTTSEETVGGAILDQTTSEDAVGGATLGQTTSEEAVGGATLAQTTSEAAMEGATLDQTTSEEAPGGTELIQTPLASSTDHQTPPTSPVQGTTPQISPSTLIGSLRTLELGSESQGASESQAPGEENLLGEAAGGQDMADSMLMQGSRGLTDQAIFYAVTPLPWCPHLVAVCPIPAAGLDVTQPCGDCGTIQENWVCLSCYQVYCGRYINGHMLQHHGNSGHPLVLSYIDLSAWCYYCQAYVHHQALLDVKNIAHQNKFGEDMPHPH

Histone deacetylase 1 = Histone deacetylase 1 (Homo sapiens, UniProt Q13547); assay: Inhibition of recombinant human HDAC1 using Ac-Val-Gly-(NAc)Lys-AMC as substrate incubated for 30 mins by fluorescence based assay
MCF7 = assay: Antiproliferative activity against human MCF7 cells expressing ER assessed as inhibition of cell viability at high concentration incubated for 12 days with every 3 day treatment by Alamar blue staining based assay relative to control; format: functional; details: time 12 day

Sequence of Histone deacetylase 1 (Q13547 whole entry): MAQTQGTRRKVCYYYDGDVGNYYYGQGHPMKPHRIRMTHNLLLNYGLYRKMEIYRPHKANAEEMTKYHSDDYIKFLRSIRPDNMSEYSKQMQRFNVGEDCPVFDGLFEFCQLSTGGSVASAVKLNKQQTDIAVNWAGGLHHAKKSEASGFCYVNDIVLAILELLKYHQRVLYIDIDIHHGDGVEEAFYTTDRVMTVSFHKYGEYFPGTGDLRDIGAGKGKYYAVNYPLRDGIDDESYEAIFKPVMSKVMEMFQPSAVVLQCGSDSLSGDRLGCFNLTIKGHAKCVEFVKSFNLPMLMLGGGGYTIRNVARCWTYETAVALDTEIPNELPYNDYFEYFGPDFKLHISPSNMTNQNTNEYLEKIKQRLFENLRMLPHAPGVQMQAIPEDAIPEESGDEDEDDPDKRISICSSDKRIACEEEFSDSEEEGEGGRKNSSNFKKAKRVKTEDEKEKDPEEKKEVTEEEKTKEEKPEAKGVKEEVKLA

pIC50 [1]	pIC50 (Histone deacetylase 1)	Compound	inhibition (INH) (MCF7)
6.91	6.41	O=C(CCCCOc1ccc(-c2sc3cc(O)ccc3c2C(=O)c2ccc(OCCN3CCCCC3)cc2)cc1)NO	–
6.53	7.92	O=C(CCCCCc1ccc(-c2sc3cc(O)ccc3c2C(=O)c2ccc(OCCN3CCCCC3)cc2)cc1)NO	–
6.69	6.33	O=C(CCc1ccc(-c2sc3cc(O)ccc3c2C(=O)c2ccc(OCCN3CCCCC3)cc2)cc1)NO	100%
6.66	6.59	O=C(CCCCc1ccc(-c2sc3cc(O)ccc3c2C(=O)c2ccc(OCCN3CCCCC3)cc2)cc1)NO	–
6.48	6.46	O=C(CCCCCCc1ccc(-c2sc3cc(O)ccc3c2C(=O)c2ccc(OCCN3CCCCC3)cc2)cc1)NO	–
7.68	6.88	O=C(CCCCCOc1ccc(-c2sc3cc(O)ccc3c2C(=O)c2ccc(OCCN3CCCCC3)cc2)cc1)NO	–
7.04	5.22	O=C(CCCOc1ccc(-c2sc3cc(O)ccc3c2C(=O)c2ccc(OCCN3CCCCC3)cc2)cc1)NO	100%
